{"source": "paper PMC5234788", "about": "(PLoS ONE, 2017)", "key": {"Dopamine, D2s (h)": {"tested_on": "T1, Dopamine, D2s (h)", "T1 construct": "Caliper Lifescience", "assay": "Radio-ligand binding assay, Dopamine D2s", "set-up": "species or system human", "details": "10 μM l-THBr", "method": "(§1) To determine the possible targets of l-THBr action, the binding affinities of l-THBr to neurotransmitter receptors known to be involved in sedation, hypnosis and anxiety were investigated. Radio-ligand binding assays were performed by Caliper Lifescience (Hopkinton, MA, USA). The screening was carried out at a concentration of 10 μM l–THBr to test its ability to inhibit the binding of radioligands to their corresponding receptors. The results were expressed as percentage of inhibition of labeled ligand binding to individual receptors. Significant binding activity was defined as ≥50%."}, "Dopamine Transporter": {"tested_on": "T2, Dopamine Transporter", "T2 construct": "Caliper Lifescience", "assay": "Radio-ligand binding assay, Dopamine Transporter", "details": "10 μM l-THBr; radioligand [3H]WIN 35,428", "method": "as §1"}, "[1]": {"tested_on": "Glutamate, NMDA Agonist Site (Ionotropic)", "assay": "Radio-ligand binding assay, Glutamate NMDA agonist site", "details": "10 μM l-THBr; radioligand [3H]CGP 39653", "method": "as §1"}, "Serotonin, 5HT7 (h)": {"tested_on": "T3, Serotonin, 5HT7 (h)", "T3 construct": "Caliper Lifescience", "assay": "Radio-ligand binding assay, Serotonin 5HT7", "set-up": "species or system human", "details": "10 μM l-THBr", "method": "as §1"}, "[2]": {"target": "T4, human D2 dopamine receptor (Homo sapiens, UniProt P14416)", "T4 construct": "host or cells: HEK293", "T4 sequence (P14416 whole entry)": "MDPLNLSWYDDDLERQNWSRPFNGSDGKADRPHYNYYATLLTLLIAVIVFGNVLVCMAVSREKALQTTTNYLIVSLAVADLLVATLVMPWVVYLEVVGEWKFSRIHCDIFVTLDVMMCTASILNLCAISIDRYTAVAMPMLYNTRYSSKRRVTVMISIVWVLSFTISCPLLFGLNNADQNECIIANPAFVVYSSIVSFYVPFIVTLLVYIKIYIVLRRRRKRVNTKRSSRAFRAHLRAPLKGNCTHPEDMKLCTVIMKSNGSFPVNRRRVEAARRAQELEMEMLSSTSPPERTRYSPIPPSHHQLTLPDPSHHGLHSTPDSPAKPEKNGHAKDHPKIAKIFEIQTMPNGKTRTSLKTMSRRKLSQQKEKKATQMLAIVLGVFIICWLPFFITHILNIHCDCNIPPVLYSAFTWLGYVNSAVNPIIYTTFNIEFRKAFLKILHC", "assay": "biochemical", "format": "biochemical", "text": "D2-D4 dopamine receptors and 5-HT1A serotonin receptors are Gαi-coupled receptors that mediate inhibitory neurotransmission. We conducted [^35S]GTPγS assays to determine the agonist or antagonist properties of l-THBr at D2 dopamine receptors or 5-HT1A serotonin receptors. HEK293 cells stably expressing D2 receptors were provided by the Beijing Institute of Pharmacology and Toxicology (Beijing, China). The membrane preparation of D2-expressing HEK293 cells and rat hippocampal tissues highly expressing 5-HT1A receptors were prepared as previously described. Briefly, 10 SD rats were anesthetized and decapitated, and the hippocampi were quickly dissected and stored at -80°C until use. D2 receptor-expressing HEK293 cells and the hippocampal tissue were each homogenized at 4°C in 50 mM Tris-HCl buffer (pH 7.4). The homogenates were centrifuged at 2500 × g for 6 min, and the supernatant was further centrifuged for 20 min at 40000 × g. Membranes were re-suspended in Tris-HCl buffer and stored at -80°C until use.\n[^35S]GTPγS assays were performed in a total volume of 0.5 ml at 4°C. […] Bound radioactivity was determined by liquid scintillation counting. Drug effects were expressed as drug-induced increase in binding over basal binding (binding in the absence of drugs). […] The inhibitory effect of l–THBr was determined by a similar equation to obtain the IC50 values."}, "Dopamine, D3": {"tested_on": "T5, Dopamine, D3", "T5 construct": "Caliper Lifescience", "assay": "Radio-ligand binding assay, Dopamine D3", "details": "10 μM l-THBr", "method": "as §1"}, "Serotonin, 5HT1D": {"tested_on": "T6, Serotonin, 5HT1D", "T6 construct": "Caliper Lifescience", "assay": "Radio-ligand binding assay, Serotonin 5HT1D", "details": "10 μM l-THBr; radioligand [3H]5-CT", "method": "as §1"}, "male CD-1 ICR mice": {"tested_on": "male CD-1 ICR mice", "assay": "Elevated plus-maze test", "format": "in vivo", "text": "The elevated plus-maze test is widely used for the screening and evaluation of anxiolytic drugs. The apparatus consists of two open arms (30 cm × 5 cm) and two enclosed arms (30 cm × 5 cm × 15 cm), which is elevated 45 cm above the ground. The entire maze was made of clear Plexiglas and illuminated by four 30 W white lights with 300 lx light intensity arranged as a cross 100 cm above the maze. 48 male CD-1 ICR mice were randomly divided into either the vehicle group, one of three doses of l–THBr groups, or the diazepam group. 30 min after injection, mice were gently placed on the center platform facing an open arm, and the number of entries and the time spent in both arms were recorded by a video camera for 5 min. The results were expressed as the percentage of entries into the open arms (%) = (the number of entries into the open arms / the total number of entries into the four arms) × 100%; and the percentage of time spent in the open arms (%) = (time spent in the open arms / total time spent in the four arms) × 100%.\nIn a separate experiment, WAY100635 (a 5-HT1A antagonist) was used to test whether the anxiolytic-like activity of l-THBr is mediated by the activation of the 5-HT1A receptor. Forty male CD-1 ICR mice were randomly divided into one of four groups: vehicle, WAY100635 (3 mg/kg, i.p.), l–THBr (5 mg/kg, i.p.) or WAY100635 (3 mg/kg, i.p.) + l–THBr (5 mg/kg, i.p.). Mice were administered vehicle or WAY100635 followed by vehicle or l–THBr (5 mg/kg) injections 15 min later. The test was performed 30 min after the administration of l-THBr or vehicle."}, "[3]": {"tested_on": "Glutamate, Kainate Site (Ionotropic)", "assay": "Radio-ligand binding assay, Glutamate Kainate site", "details": "10 μM l-THBr; radioligand [3H]Kainic acid", "method": "as §1"}, "[4]": {"tested_on": "T7, Glutamate, NMDA, Glycine (stry-insens Site (Ionotropic))", "T7 construct": "Caliper Lifescience", "assay": "Radio-ligand binding assay, Glutamate NMDA glycine site", "details": "10 μM l-THBr; radioligand [3H]-MDL-105,519", "method": "as §1"}, "Serotonin, 5HT4": {"tested_on": "T8, Serotonin, 5HT4", "T8 construct": "Caliper Lifescience", "assay": "Radio-ligand binding assay, Serotonin 5HT4", "details": "10 μM l-THBr; radioligand [3H] 113808", "method": "as §1"}, "Serotonin, 5HT5A (h)": {"tested_on": "T9, Serotonin, 5HT5A (h)", "T9 construct": "Caliper Lifescience", "assay": "Radio-ligand binding assay, Serotonin 5HT5A", "set-up": "species or system human", "details": "10 μM l-THBr; radioligand [3H]-LSD", "method": "as §1"}, "Serotonin, 5HT2A": {"tested_on": "T10, Serotonin, 5HT2A", "T10 construct": "Caliper Lifescience", "assay": "Radio-ligand binding assay, Serotonin 5HT2A", "details": "10 μM l-THBr; radioligand [3H]Ketanserin", "method": "as §1"}, "GABA-B": {"tested_on": "T11, GABA-B", "T11 construct": "Caliper Lifescience", "assay": "Radio-ligand binding assay, GABA-B", "details": "10 μM l-THBr; radioligand [3H]CGP 54626A", "method": "as §1"}, "GABA A, Agonist Site": {"tested_on": "GABA A, Agonist Site", "assay": "Radio-ligand binding assay, GABA A agonist site", "details": "10 μM l-THBr; radioligand [3H]GABA", "method": "as §1"}, "[5]": {"tested_on": "Glycline, Strychnine-sensitive", "assay": "Radio-ligand binding assay, Glycine strychnine-sensitive", "details": "10 μM l-THBr; radioligand [3H]Strchnine", "method": "as §1"}, "Serotonin, 5HT1A (h)": {"tested_on": "T12, Serotonin, 5HT1A (h)", "T12 construct": "Caliper Lifescience", "assay": "Radio-ligand binding assay, Serotonin 5HT1A", "set-up": "species or system human", "details": "10 μM l-THBr", "method": "as §1"}, "[6]": {"details": "l-THBr 1 or 5 mg/kg, i.p., P < 0.05 vs control"}}, "note": "“And” between values parts separate entries of the source, which are not always exact repeats. Identical values can stand only once."}
{"smiles": "COc1ccc2c(c1O)CN1CCc3cc4c(cc3[C@@H]1C2)OCO4", "note": "[l-THBr, levo-tetrahydroberberrubine]", "values": [{"measurement": "Activity", "setting": "Dopamine, D2s (h)", "result": "Yes (Significant binding affinity of l-THBr was defined as greater than 50% inhibition of ligand binding)"}, {"measurement": "Average inhibition percentage", "setting": "Dopamine, D2s (h); radioligand [3H]-Raclopride", "result": "98.41% and 96.43%"}, {"measurement": "Average inhibition percentage", "setting": "Dopamine Transporter", "result": 8.8, "unit": "%"}, {"measurement": "Average inhibition percentage", "setting": "[1]", "result": 4.79, "unit": "%"}, {"measurement": "Activity", "setting": "Serotonin, 5HT7 (h)", "result": "Yes (Significant binding affinity of l-THBr was defined as greater than 50% inhibition of ligand binding)"}, {"measurement": "Average inhibition percentage", "setting": "Serotonin, 5HT7 (h); radioligand [3H]LSD", "result": 54.82, "unit": "%"}, {"measurement": "IC50", "setting": "[2]", "result": 5.26, "unit": "nM"}, {"measurement": "dose-dependent increase in [35S]GTPγS binding (agonist effect)", "setting": "[2]", "result": "but not l-THBr induced a dose-dependent increase"}, {"measurement": "Activity", "setting": "Dopamine, D3", "result": "Yes (Significant binding affinity of l-THBr was defined as greater than 50% inhibition of ligand binding)"}, {"measurement": "Average inhibition percentage", "setting": "Dopamine, D3; radioligand [3H]7-OH-DAPT", "result": 77.61, "unit": "%"}, {"measurement": "Average inhibition percentage", "setting": "Serotonin, 5HT1D", "result": 42.28, "unit": "%"}, {"measurement": "anxiolytic-like effects (open arm entries and time) on co-administration of 5-HT1A antagonist WAY100635", "setting": "male CD-1 ICR mice; l-THBr 5 mg/kg i.p. + WAY100635 3 mg/kg i.p. given 15 min earlier", "result": "significantly reversed"}, {"measurement": "ratio of entries into the open arms", "setting": "male CD-1 ICR mice; [6]", "result": "increased"}, {"measurement": "ratio of time spent in the open arms", "setting": "male CD-1 ICR mice; [6]", "result": "increased"}, {"measurement": "Average inhibition percentage", "setting": "[3]", "result": -0.89, "unit": "%"}, {"measurement": "Average inhibition percentage", "setting": "[4]", "result": 1.79, "unit": "%"}, {"measurement": "Average inhibition percentage", "setting": "Serotonin, 5HT4", "result": 32.84, "unit": "%"}, {"measurement": "Average inhibition percentage", "setting": "Serotonin, 5HT5A (h)", "result": 23.79, "unit": "%"}, {"measurement": "Average inhibition percentage", "setting": "Serotonin, 5HT2A", "result": 40.90, "unit": "%"}, {"measurement": "Average inhibition percentage", "setting": "GABA-B", "result": -6.94, "unit": "%"}, {"measurement": "Average inhibition percentage", "setting": "GABA A, Agonist Site", "result": 7.89, "unit": "%"}, {"measurement": "Average inhibition percentage", "setting": "[5]", "result": 21.26, "unit": "%"}, {"measurement": "Activity", "setting": "Serotonin, 5HT1A (h)", "result": "Yes (Significant binding affinity of l-THBr was defined as greater than 50% inhibition of ligand binding)"}, {"measurement": "Average inhibition percentage", "setting": "Serotonin, 5HT1A (h); radioligand [3H]-8-OH-DPAT", "result": 78.31, "unit": "%"}]}
